What was measured:
Type in all cases: cell-based
[1] = test system: SKMM1; test: MTT cell viability assay; conditions: SKMM1, Multiple Myeloma, RPMI 10% FBS
Source text: (§1) A total of 60 cell lines representative of different cancer types were obtained from the ATCC and grown and maintained in accordance with the provided guidelines. The cell lines represented the following distinct histologies: mantle cell lymphoma (5 lines: JVM13, Rec1, Mino, JVM2, Jeko); germinal center B-cell derived (“GCB”) DLBCL (19 lines: Farage, BJAB, Ly1, Ly2, Ly7, Ly8, Ly19, HBL2, HT, Karpas422, Pfeiffer, RCK8, RL, Sci-1, Ski, SUDHL4, SUDHL7, Toledo, WSU-NHL); primary mediastinal B-cell lymphoma (“PMBL”) (3 lines: K1106, MEDB1, U2940); Burkitt lymphoma (11 lines: Daudi, CA46, EB1, EB2, EB3, Jijoye, Raji, Ramos, Namwala, BL2, BL41); Hodgkin lymphoma (3 lines: RMPI6666, L1236, L428); activated B-cell derived (“ABC”) DLBCL (6 lines: Ly3, HBL1, TMD8, Ly10, Riva, U2932); multiple myeloma (6 lines: U266, SKMM1, RPMI8226, KMS12, IM9, H929); acute myelogenous leukemia (“AML”) (2 lines: U937, KG1); acute lymphoblastic leukemia (“ALL”) (2 lines: Reh, SR); and T-cell lymphoma (3 lines: Molt4, RPMI8402, Jurkat). The cell lines were tested within six months after resuscitation.
(§2) The 3-(4,5-dimethylthiazol-2-yl)-2,5-diphenyltetrazolium bromide (MTT) cell viability assay was used to determine cell viability in response to drug treatment. Five replicates per concentration tested were carried out in serial dilutions with a total of ten concentrations with a 50% reduction in drug concentration per dilution for each plate. A total of 15 μl of MTT reagent was added to each drug-treated well and incubated for three hours in 37° C. Detergent was added to each drug-treated well and incubated overnight at room temperature without exposure to light. Absorbance was measured at 570 nm using a plate reader from Tecan Group. The IC50 concentration was determined using the publicly available ED50 plus v1.0 software program.

[2] = test system: Toledo; test: MTT cell viability assay; conditions: Homo sapiens, GCB DLBCL, RPMI 10% FBS
Source text: as §1, §2

[3] = test system: RPMI8226; test: MTT cell viability assay; conditions: Homo sapiens, RPMI-8226; RPMI8226, Multiple Myeloma, RPMI 10% FBS
Source text: as §1, §2

[4] = test system: Riva; test: MTT cell viability assay; conditions: ABC DLBCL, RPMI 10% FBS
Source text: as §1, §2

[5] = test system: LY8; test: MTT cell viability assay; conditions: LY8, GCB DLBCL, OCI
Source text: as §1, §2

[6] = test system: Jurkat; test: MTT cell viability assay; conditions: Homo sapiens, T-cell, RPMI 10% FBS
Source text: as §1, §2

[7] = test system: U266; test: MTT cell viability assay; conditions: Homo sapiens, U-266; U266, Multiple Myeloma, RPMI 15% FBS
Source text: as §1, §2

[8] = test system: RMPI6666; test: MTT cell viability assay; conditions: RMPI6666, Hodgkin Lymphoma, RPMI 10% FBS
Source text: as §1, §2

[9] = test system: LY1; test: MTT cell viability assay; conditions: LY1, GCB DLBCL, OCI
Source text: as §1, §2

[10] = test system: HBL1; test: MTT cell viability assay; conditions: HBL1, ABC DLBCL, RPMI 10% FBS
Source text: as §1, §2

[11] = test system: KMS12; test: MTT cell viability assay; conditions: KMS12, Multiple Myeloma, RPMI 10% FBS
Source text: as §1, §2

[12] = test system: HT; test: MTT cell viability assay; conditions: Homo sapiens, GCB DLBCL, RPMI 10% FBS
Source text: as §1, §2

[13] = test system: U2940; test: MTT cell viability assay; conditions: Homo sapiens, U-2940; U2940, PMBL, RPMI 10% FBS
Source text: as §1, §2

[14] = test system: WSUNHL; test: MTT cell viability assay; conditions: Homo sapiens, WSU-NHL, GCB DLBCL, RPMI 10% FBS
Source text: as §1, §2

[15] = test system: JVM13; test: MTT cell viability assay; conditions: JVM13, MantleCellLymphoma, RPMI 10% FBS
Source text: as §1, §2

[16] = test system: Ski; test: MTT cell viability assay; conditions: GCB DLBCL, RPMI 10% FBS
Source text: as §1, §2

[17] = test system: RPMI8402; test: MTT cell viability assay; conditions: Homo sapiens, RPMI 8402; RPMI8402, T-cell, RPMI 10% FBS
Source text: as §1, §2

[18] = test system: JVM2; test: MTT cell viability assay; conditions: Homo sapiens, JVM-2; JVM2, MantleCellLymphoma, RPMI 10% FBS
Source text: as §1, §2

[19] = test system: U2932; test: MTT cell viability assay; conditions: Homo sapiens; U2932, ABC DLBCL, RPMI 10% FBS
Source text: as §1, §2

[20] = test system: SUDHL7; test: MTT cell viability assay; conditions: SUDHL7, GCB DLBCL, RPMI 15% FBS
Source text: as §1, §2

[21] = test system: Namwala; test: MTT cell viability assay; conditions: Burkitt Lymphoma, RPMI 10% FBS
Source text: as §1, §2

[22] = test system: HBL2; test: MTT cell viability assay; conditions: HBL2, GCB DLBCL, RPMI 10% FBS
Source text: as §1, §2

[23] = test system: L428; test: MTT cell viability assay; conditions: Homo sapiens, L-428; L428, Hodgkin Lymphoma, RPMI 10% FBS
Source text: as §1, §2

[24] = test system: Ly8 cell lines with stable knockdown of PAK1 expression; test: MTT assay in Ly8 cells with shRNA knockdown of PAK1; conditions: on average, P<0.01
Method: Lentiviral pGIPZ constructs containing either a scrambled sequence (non-silencing; cat. no. RHS4346; Open Biosystems) as control, or a hairpin sequence targeting the PAK1 gene (cat. no. RHS4430; Open Biosystems) were mixed with Lentiviral packaging mix (cat. no. TLP4691; Open Biosystems) and transfected into TLA-HEK-293T cells using Arrest-in as a transfection reagent. Virus was harvested 72 hours post-transfection and frozen at −80° C. until use. DLBCL cell lines were infected with virus in the presence of 8 μg/μl of polybrene, using 1×10^5 cells per well in a 6-well plate. The plates containing cells and virus were spun at 700 g for 90 minutes at room temperature. […] Successful knockdown of PAK1 was confirmed by Western blot and quantitative PCR. […]

[25] = test system: Ly8 cells and normal human B cells (tonsil lymphocytes); test: Toxicity in Ly8 cells compared to normal B cells (alamar blue); conditions: alone and in combination; 36 hours
Method: BEZ235 was tested in combination with the PAK1 inhibitor IPA-3 using Calcusyn software by applying the Chou-Talalay method. BJAB, HBL1, HBL2, HT, Ly8, and Riva cells were tested, as were normal tonsil lymphocytes. Ly8 and tonsillar lymphocytes were cultured in 96-well plates (approximately 500,000 cells/ml) for 36 hours in Iscove's modified Dulbecco's medium (IMDM) with 20% human AB serum. Viability was assessed with alamar blue dye and normalized to the lowest concentration of BEZ235 in each group.
Finally, BEZ235 and IPA-3 were administered separately and concurrently to normal human B cells to ascertain a therapeutic window between normal and malignant cells.

Structure (SMILES) | IC50 [1] [µM] | IC50 [2] [µM] | IC50 [3] [µM] | IC50 [4] [µM] | IC50 [5] [µM] | IC50 [6] [µM] | IC50 [7] [µM] | IC50 [8] [µM] | IC50 [9] [µM] | IC50 [10] [µM] | IC50 [11] [µM] | IC50 [12] [µM] | IC50 [13] [µM] | IC50 [14] [µM] | IC50 [15] [µM] | IC50 [16] [µM] | IC50 [17] [µM] | IC50 [18] [µM] | IC50 [19] [µM] | IC50 [20] [µM] | further results
Cn1c(=O)n(-c2ccc(C(C)(C)C#N)cc2)c2c3cc(-c4cnc5ccccc5c4)ccc3ncc21 [BEZ235] | 0.0484 | 0.0204 | 0.0569 | 0.517 | 0.694 | 0.0332 | 0.167 | 0.052 | 0.0164 | 0.0717 | 0.0231 | 2.61 | 0.0354 | 0.0162 | 0.869 | 0.025 | 0.221 | 0.491 | 0.0961 | 0.0222 | IC50 [21]: 0.0321 µM; IC50 [22]: 1.56 µM; IC50 [23]: 0.0146 µM; sensitivity of the three shRNA-modified cell lines versus unmodified Ly8 cells [24]: 3.5 fold; toxicity in Ly8 cells as compared to normal B cells [25]: selective toxicity
Nc1cc(C(F)(F)F)c(-c2cc(N3CCOCC3)nc(N3CCOCC3)n2)cn1 [BKM120] | 0.826 | 2.01 | 0.674 | 0.476 | 1.37 | 1.19 | 5.6 | 3.3 | 0.382 | 1.67 | 0.954 | 0.435 | 4.45 | 1.26 | 0.933 | 0.236 | 1.22 | 1.39 | 5.36 | 0.233 | IC50 [21]: 0.715 µM; IC50 [22]: 1.42 µM; IC50 [23]: 1.87 µM
